The results in this text go back to publication PMC7498324, “Structure and mechanism of CutA, RNA nucleotidyl transferase with an unusual preference for cytosine” (Nucleic Acids Research, 2020).

Each structure is given as a SMILES string.

The test system of the assay is T1, CutA (TtCutA).
T1 construct: TtCutA^240-603
As to the kind of experiment: fluorescence anisotropy competition with ATP-Cy5. Format: binding, Thermothielavioides terrestris.
Turning to `Nc1ccn([C@@H]2O[C@H](COP(=O)(O)OP(=O)(O)OP(=O)(O)O)[C@@H](O)[C@H]2O)c(=O)n1` [CTP], the IC50 came to 467 ± 16 nM. Under `Nc1ncnc2c1ncn2[C@@H]1O[C@H](COP(=O)(O)OP(=O)(O)OP(=O)(O)O)[C@@H](O)[C@H]1O` [ATP] stands 562 ± 21 nM; under `Nc1nc2c(ncn2[C@@H]2O[C@H](COP(=O)(O)OP(=O)(O)OP(=O)(O)O)[C@@H](O)[C@H]2O)c(=O)[nH]1` [GTP], 1050 ± 56 nM; under `O=c1ccn([C@@H]2O[C@H](CO[P@@](=O)(O)O[P@@](=O)(O)OP(=O)(O)O)[C@@H](O)[C@H]2O)c(=O)[nH]1` [UTP], 537 ± 23 nM.
